Test results taken from patent US20210169848A1, “USE OF NEUROKININ-1 ANTAGONISTS TO TREAT PRURITUS” (VYNE THERAPEUTICS INC., priority 2018, published 2021).

How the values were obtained:
[1] = cited from earlier work
[2] = tested on: subjects with idiopathic pruritus; assay: Phase II randomized, double-blind, placebo-controlled clinical study of serlopitant for chronic pruritus (post hoc WI-NRS 4-point responder analysis); type: in vivo, human; details: for WI-NRS 4-point Responder Rate at Week 6: 6 weeks, 3-tablet loading dose Day 1
[3] = tested on: patients with pruritus; assay: Pooled clinical studies, age-related effects of serlopitant (NRS change, NRS 4-point responder rate); type: in vivo, human; details: older patients (e.g., 40 years or older) compared with younger patients; pooled 1 mg and 5 mg
Procedure: Data obtained from the clinical studies described in Examples 6-8 for patients administered 1 mg and 5 mg serlopitant were pooled and evaluated on the basis of the age of the subjects.

Structure (SMILES) | thermodynamic stability of polymorph ([1]; Form I relative to Form II of free base serlopitant) | hygroscopicity ([1]; all tested relative humidity conditions) | WI-NRS 4-point Responder Rate at Week 6 ([2]; all patients, 0.25 mg once daily oral) | WI-NRS 4-point Responder Rate at Week 6 ([2]; all patients, 1 mg once daily oral) | WI-NRS 4-point Responder Rate at Week 6 ([2]; all patients, 5 mg once daily oral) | WI-NRS 4-point Responder Rate at Week 6 ([2]; patients with inflammatory skin disease, 0.25 mg once daily oral) | WI-NRS 4-point Responder Rate at Week 6 ([2]; patients with inflammatory skin disease, 1 mg once daily oral) | WI-NRS 4-point Responder Rate at Week 6 ([2]; patients with inflammatory skin disease, 5 mg once daily oral) | response to serlopitant therapy, patients without vs with inflammatory skin disease ([2]; patients without inflammatory skin disease compared with patients with inflammatory skin disease) | WI-NRS 4-point Responder Rate at Week 6 ([2]; patients without inflammatory skin disease, 0.25 mg once daily oral) | WI-NRS 4-point Responder Rate at Week 6 ([2]; patients without inflammatory skin disease, 1 mg once daily oral) | WI-NRS 4-point Responder Rate at Week 6 ([2]; patients without inflammatory skin disease, 5 mg once daily oral) | response to serlopitant therapy as function of age (NRS change from baseline, NRS 4-point Responder Rate) [3]
C[C@@H](O[C@H]1CC[C@@H]2CN(C3=CC(=O)CC3)C[C@H]2[C@@H]1c1ccc(F)cc1)c1cc(C(F)(F)F)cc(C(F)(F)F)c1 [Form I] | thermodynamically more stable below 70 °C | non-hygroscopic |  |  |  |  |  |  |  |  |  |  | 
CC(O[C@H]1CC[C@@H]2CN(C3=CC(=O)CC3)C[C@H]2[C@@H]1c1ccc(F)cc1)c1cc(C(F)(F)F)cc(C(F)(F)F)c1 (stereo partly drawn) [serlopitant, 3-[(3aR,4R,5S,7aS)-5-[(1R)-1-[3,5-bis(trifluoromethyl)phenyl]cthoxy]-4-(4-fluorophenyI)-1,3,3a,4,5,6,7,7a-octahydroisoindol-2-yl]cyclopent-2-en-1-one] |  |  | 38.5% (n = 52) | 32.7% (n = 55) | 46.2% (n = 52) | 30.8% (n = 26) | 29.6% (n = 27) | 33.3% (n = 18) | appeared to respond better | 46.2% (n = 26) | 35.7% (n = 28) | 52.9% (n = 34) | responded better
